Test results taken from article PMC8480782, “Efficient Dimerization Disruption of Leishmania infantum Trypanothione Reductase by Triazole-phenyl-thiazoles” (Journal of Medicinal Chemistry, 2021).
Read-outs that look alike come from different tables or passages of the source.

Experiments:
[1] = target: T1, LiTryR dimer (Leishmania infantum, UniProt A4HSF7); assay: biochemical; conditions: 400 nM LiTryR, 16 h at 37 °C; read-out: IC50^dim, LiTryR monomer displacement (dimer quantitation ELISA)
T1 construct: made in house; host or cells: E. coli BL21 (DE3) Rossetta (co-transformed with both plasmids)
Method: The stability of the LiTryR dimeric form in the presence of 1,2,3-triazole-phenyl-thiazole-based compounds was evaluated using the novel enzyme-linked immunosorbent assay (ELISA) developed in our laboratory.[25] […] Next, the different solutions were centrifuged at 18 000g for 15 min at room temperature. The supernatants (200 μL/well) were added to the α-FLAG-coated plates (Sigma-Aldrich, St. Louis, MO) and incubated for 30 min at 37 °C with agitation in a humid atmosphere. The plates were washed five times with TTBS buffer (2 mM Tris, pH 7.6, 138 mM NaCl, and 0.1% Tween-20) and incubated with diluted monoclonal α-HIS horseradish peroxidase (HRP)-conjugated antibody (200 μL, 1:50 000, Abcam, Cambridge, U.K.) in fatty acid- and essentially globulin-free bovine serum albumin (BSA) (5%) prepared in TTBS buffer for 1 h at room temperature. The plates were washed five times, and o-phenylenediamine dihydrochloride (OPD) substrate prepared according to the manufacturer’s instructions was added. The enzymatic reaction was stopped after 5 min with H2SO4 (100 μL, […]), and the absorbances were measured at 490 nm in an EnSpire Multimode Plate Reader (PerkinElmer, Waltham, MA). All of the assays were conducted in triplicate in at least three independent experiments. Data were analyzed using a nonlinear regression model with GraFit 6 software (Erithacus, Horley, Surrey, U.K.).

[2] = tested on: HepG2 cells; assay: Cellular toxicity, crystal violet assay; assay type: cell-based; conditions: Homo sapiens, HepG2; 24 h, crystal violet method; read-out: EC50 HepG2
Method: Liver hepatocellular carcinoma HepG2 cells were grown in Dulbecco’s modified Eagle’s medium (DMEM) (Sigma-Aldrich, St. Louis, MO) with 10% heat-inactivated FCS, antibiotics, and 10 mM HEPES.
Drug treatment of liver hepatocellular carcinoma HepG2 cells was performed at a concentration of 10^5 cells/mL at 37 °C and 5% CO2 for 24 h. EC50 was evaluated by the crystal violet assay. Briefly, cells were washed with phosphate-buffered saline (PBS) and stained with 200 μL of crystal violet solution (0.2% crystal violet, 2% ethanol) for 10 min at room temperature. Next, the plates were washed twice with tap water and allowed to dry. The stained cells were solubilized with 400 μL of 1% sodium dodecyl sulfate (SDS), and the color intensity was quantified at 570 nm using an EnSpire Multimode Plate Reader (PerkinElmer, Waltham, MA). All of the assays were conducted in triplicate in at least three independent experiments. Data were analyzed using a nonlinear regression model with GraFit 6 software (Erithacus, Horley, Surrey, U.K.).

[3] = tested on: L. infantum promastigotes; assay: Leishmanicidal activity on promastigotes (PI exclusion, flow cytometry); assay type: cell-based, Leishmania infantum; conditions: for SIp (ratio of EC50 against human cells to EC50 against promastigotes): HepG2 / promastigotes; for EC50: Leishmania infantum
Method: (§1) L. infantum promastigotes (MCAN/ES/89/IPZ229/1/89) were grown in Roswell Park Memorial Institute (RPMI)-1640 medium (Sigma-Aldrich, St. Louis, MO) supplemented with 10% heat-inactivated fetal calf serum (FCS), antibiotics, and 25 mM HEPES (pH 7.2) at 26 °C. L. infantum axenic amastigotes (MCAN/ES/89/IPZ229/1/89) were grown in M199 medium (Invitrogen, Leiden, The Netherlands) supplemented with 10% heat-inactivated FCS, 1 g/L β-alanine, 100 mg/L L-asparagine, 200 mg/L sucrose, 50 mg/L sodium pyruvate, 320 mg/L malic acid, 40 mg/L fumaric acid, 70 mg/L succinic acid, 200 mg/L α-ketoglutaric acid, 300 mg/L citric acid, 1.1 g/L sodium bicarbonate, 5 g/L morpholineethanesulfonic acid (MES), 0.4 mg/L hemin, and 10 mg/L gentamicine, pH 5.4, at 37 °C.
(§2) Drug treatment of L. infantum promastigotes was performed during the logarithmic growth phase at a concentration of 2 × 10^6 parasites/mL at 26 °C for 24 h. […] EC50 was evaluated by flow cytometry by the propidium iodide (PI) exclusion method. After selection of the parasite population based on their forward scatter (FSC) and side scatter (SSC) values, live and dead parasite cells were identified by their permeability to PI. All of the assays were conducted in triplicate in at least three independent experiments. Data were analyzed using a nonlinear regression model with GraFit 6 software (Erithacus, Horley, Surrey, U.K.).

[4] = tested on: L. infantum axenic amastigotes; assay: Leishmanicidal activity on axenic amastigotes (PI exclusion, flow cytometry); assay type: cell-based, Leishmania infantum; conditions: for SIa (ratio of EC50 against human cells to EC50 against amastigotes): HepG2 / axenic amastigotes; for EC50: Leishmania infantum, axenic amastigotes, 24 h at 37 °C, read-out: EC50 amastigotes
Method: as §1
Axenization was performed by diluting 0.5 mL of a 7-day stationary phase culture of L. infantum promastigotes (2–3 × 10^7 parasites/mL) in 4.5 mL of amastigotes medium and incubating the culture at 37 °C for 2 or 3 days. L. infantum axenic amastigotes apparition was followed by phase-contrast microscopy using an Eclipse Ti inverted microscope (Nikon, Tokyo, Japan).
as §2

[5] = target: T2, LiTryR (Leishmania infantum, UniProt A4HSF7); assay: biochemical; assay type: biochemical; conditions: LiTryR; 1 μM TS2; maximum assayed 75 μM; read-out: IC50^act, TryR oxidoreductase activity
T2 construct: HIS (N); made in house; host or cells: E. coli BL21 (DE3) Rossetta
Method: A concentration of 1 μM TS2 was used for this initial screening. This low substrate concentration is sufficient for comparison of compound inhibitory activity in the oxidoreductase assay.
Recombinant L. infantum TryR (LiTryR) HIS-tagged and HIS-FLAG-tagged versions were used for all LiTryR oxidoreductase activity and dimer quantitation assays. These LiTryR versions were purified from Escherichia coli as previously described.[25] Briefly, pRSETA-HIS-LiTryR construct alone or in combination with the pET24a-FLAG-LiTryR construct was transformed into BL21 (DE3) Rossetta E. coli strain. An overnight E. coli culture grown at 37 °C in Luria–Bertani (LB) medium with the appropriate antibiotics and vigorous shaking was diluted (1:100) in the same medium and allowed to grow in the same conditions until the OD600 was 0.5. Then, LiTryR expression was induced by addition of 1 mM isopropyl-β-D-1-thiogalactopyranoside (IPTG) for 16 h at 26 °C. The cells were centrifuged for 5 min at 9000g and 4 °C and the wet pellet resuspended in lysis buffer (50 mM Tris, pH 7, 300 mM NaCl, 25 mM imidazole, protease inhibitor cocktail, and 1 mg/mL lysozyme). […] The supernatant was sonicated again as previously described for 10 min and loaded on a HisTrap column (GE Healthcare, Chicago, IL) for 16 h at 4 °C using a P-1 peristaltic pump (GE Healthcare, Chicago, IL). Once loaded, the HisTrap column was connected to an ÄKTA purifier UPC 10 (GE Healthcare, Chicago, IL) and washed using a 5–10% gradient between buffer A (50 mM Tris, pH 7 and 300 mM NaCl) and B (50 mM Tris, pH 7, 300 mM NaCl, and 500 mM imidazole). LiTryR was eluted using a 40% gradient between buffers A and B. Fractions containing recombinant LiTryR were pooled and loaded into a HiPrep 26/10 Desalting column (GE Healthcare, Chicago, IL) previously equilibrated with buffer A. Finally, LiTryR was concentrated to 2 mg/mL using an Amicon Ultra-15 50K (Merck Millipore, Burlington, MA) and an equal volume of glycerol was added before storing at −20 °C.
TryR oxidoreductase activity was determined spectrophotometrically using a modified version of the DTNB-coupled assay described by Hamilton et al.[52] Briefly, reactions were carried out at 26 °C in 250 μL of N-(2-hydroxyethyl)piperazine-N′-ethanesulfonic acid (HEPES) buffer (pH 7.5, 40 mM) containing ethylenediaminetetraacetic acid (EDTA) (1 mM), NADP^+ (30 μM), DTNB (25 μM), TS2 (1 μM), NADPH (150 μM), glycerol (0.02%), DMSO (1.75%), and recombinant TryR (7 nM). […] Reactions were started by addition of a mixture of NADPH and TS2.
TryR oxidoreductase activity was monitored at 26 °C by an increase in absorbance at 412 nm in an EnSpire Multimode Plate Reader (PerkinElmer, Waltham, MA). […] (TNB) concentration was obtained by multiplying the absorbance values by 100 (50 μM TNB generates 0.5 arbitrary units of absorbance at 412 nm). In this DTNB-coupled assay, one molecule of T(SH)2 reduces one molecule of DTNB, producing two TNB molecules. All of the assays were conducted in at least three independent experiments. Data were analyzed using a nonlinear regression model with GraFit 6 software (Erithacus, Horley, Surrey, U.K.).

[6] = 24 h at 26 °C, read-out: EC50 promastigotes
[7] = promastigotes or amastigotes (either form), read-out: EC50 against Leishmania promastigotes or amastigotes

T2 sequence (A4HSF7 1-491): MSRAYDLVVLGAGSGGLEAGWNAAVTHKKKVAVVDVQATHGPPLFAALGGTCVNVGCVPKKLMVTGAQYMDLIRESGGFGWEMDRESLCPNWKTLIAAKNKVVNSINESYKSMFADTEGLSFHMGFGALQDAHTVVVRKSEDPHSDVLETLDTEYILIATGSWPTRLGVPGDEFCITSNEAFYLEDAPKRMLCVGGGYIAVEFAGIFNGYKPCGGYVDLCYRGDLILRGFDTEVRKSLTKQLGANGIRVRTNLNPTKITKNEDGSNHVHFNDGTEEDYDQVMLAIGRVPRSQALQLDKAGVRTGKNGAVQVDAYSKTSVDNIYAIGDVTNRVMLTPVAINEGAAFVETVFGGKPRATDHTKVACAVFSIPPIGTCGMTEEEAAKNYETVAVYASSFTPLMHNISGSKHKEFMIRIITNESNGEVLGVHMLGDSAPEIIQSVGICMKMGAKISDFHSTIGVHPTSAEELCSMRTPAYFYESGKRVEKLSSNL
T1 sequence (A4HSF7 1-491): as above

Compound	IC50 [1]	EC50 [2]	SIp (ratio of EC50 against human cells to EC50 against promastigotes) [3]	EC50 [3, 6]	SIa (ratio of EC50 against human cells to EC50 against amastigotes) [4]	EC50 [4]	IC50 [5]	EC50 [3, 7]
NCCCc1cn(-c2ccc(-c3nc(CCc4ccccc4)cs3)c(OCCN3CCNC3=O)c2)nn1.O=C(O)C(F)(F)F [12h]	> 75 µM	25.7 ± 2.2 µM	2.0	12.7 ± 0.3 µM	< 1	31.6 ± 5.8 µM	20.8 ± 2.3 µM	–
CC(C)Oc1csc(-c2ccc(-n3cc(CCCCN)nn3)cc2OCCN2CCNC2=O)n1 [12l]	> 75 µM	–	–	–	–	–	54.5 ± 4.4 µM	–
O=C1NCCN1CCOc1cc(-n2cc(CCCCO)nn2)ccc1-c1nc(CCc2ccccc2)cs1 [12d]	> 75 µM	–	–	–	–	–	> 75 µM	–
NCCCCc1cn(-c2ccc(-c3nc(CCc4ccc(Oc5ccccc5)cc4)c(-c4ccccc4)s3)c(OCCN3CCNC3=O)c2)nn1.O=C(O)C(F)(F)F [19e, 1-(2-(2-(4-(2-([4-Phenyloxyphenyl]-1-yl)ethyl)-5-phenyl-thiazol-2-yl)-5-(4-(4-ammoniobutyl)-1H-1,2,3-triazol-1-yl)phenoxy)ethyl)imidazolidin-2-one 2,2,2-Trifluoroacetate]	6.7 ± 1 µM	6.6 ± 0.6 µM	–	–	ND/<1	8.4 ± 0.1 µM	19.3 ± 3.7 µM	< 10 µM
COc1cc(-n2cc(CCCCN)nn2)ccc1-c1nc(CCc2ccccc2)cs1.O=C(O)C(F)(F)F [12j]	> 75 µM	12.4 ± 0.7 µM	–	8.5 ± 0.1 µM	1.7	7.1 ± 0.7 µM	20.1 ± 2.5 µM	–
N#Cc1ccc(-n2cc(CCCCN)nn2)cc1OCCN1CCNC1=O [compound 14]	> 75 µM	–	–	–	–	–	> 75 µM	–
COc1cc(-n2cc(CCCCN)nn2)ccc1-c1nc(CCc2ccc(-c3ccccc3)cc2)cs1.O=C(O)C(F)(F)F [12k]	16.1 ± 0.7 µM	7.4 ± 0.6 µM	–	–	ND/1.9	4 ± 0.2 µM	26.8 ± 5.7 µM	–
CCCCc1cn(-c2ccc(-c3nc(CCc4ccccc4)cs3)c(OCCN3CCNC3=O)c2)nn1 [12e]	> 75 µM	–	–	–	–	–	> 75 µM	–
NCCCCc1cn(-c2ccc(-c3nc(-c4ccc(-c5ccccc5)cc4)c(-c4ccccc4)s3)c(OCCN3CCNC3=O)c2)nn1.O=C(O)C(F)(F)F [19b, 1-(2-(5-(4-(4-Ammoniobutyl)-1H-1,2,3-triazol-1-yl)-2-(4-([1,1′-biphenyl]-4-yl)-5-phenylthiazol-2-yl)phenoxy)ethyl)imidazolidin-2-one 2,2,2-Trifluoroacetate]	11.3 ± 0.2 µM	17.3 ± 0.1 µM	–	–	ND/1.8	9.4 ± 0.5 µM	18.4 ± 3.9 µM	< 10 µM
CC(C)(C)Cc1csc(-c2ccc(-n3cc(CCCCN)nn3)cc2OCCN2CCNC2=O)n1.O=C(O)C(F)(F)F [12m]	> 75 µM	44.9 ± 1.3 µM	1.0	42.6 ± 3.9 µM	1.8	25.2 ± 0.5 µM	24.1 ± 1.4 µM	–
CCCCc1cn(-c2ccc(-c3nc(CCc4ccc(-c5ccccc5)cc4)cs3)c(OCCN3CCNC3=O)c2)nn1 [12f]	> 75 µM	–	–	–	–	–	> 75 µM	–
NCCCCc1cn(-c2ccc(-c3nc(Cc4ccccc4)cs3)c(OCCN3CCNC3=O)c2)nn1 [12o]	–	67.9 ± 1.5 µM	–	> 75 µM	–	> 75 µM	–	–
O=C1NCCN1CCOc1cc(Br)ccc1-c1nc(CCc2ccccc2)cs1 [compound 13]	> 75 µM	–	–	–	–	–	> 75 µM	–
NCCCCc1cn(-c2ccc(-c3nc(CCc4ccc(-c5ccccc5)cc4)c(-c4ccccc4)s3)c(OCCN3CCNC3=O)c2)nn1.O=C(O)C(F)(F)F [19d, 1-(2-(2-(4-(2-([1,1′-Biphenyl]-4-yl)ethyl)-5-phenyl-thiazol-2-yl)-5-(4-(4-ammoniobutyl)-1H-1,2,3-triazol-1-yl)phenoxy)ethyl)imidazolidin-2-one 2,2,2-Trifluoroacetate]	5.7 ± 0.5 µM	12.1 ± 0.1 µM	–	–	ND/1.3	9.1 ± 0.2 µM	19.8 ± 2.3 µM	< 10 µM
